Measurements: patent publication US12012409B2, “Bicyclic heterocycles as FGFR inhibitors” (Incyte Corporation, priority 2020, dated 2024)
pIC50: −log10 of the molar value.

Key:
Format in all cases: biochemical
Conditions in all cases: wild-type un-phosphorylated protein; pre-incubated for 4 hours; ATP near or below Km
[1] = target: wild-type un-phosphorylated FGFR3 (Homo sapiens, UniProt P22607); test: FGFR Enzymatic Assay (FRET peptide phosphorylation), FGFR3
Method: (§1) The inhibitor potency of the exemplified compounds was determined in an enzyme discontinuous assay that measures peptide phosphorylation using FRET measurements to detect product formation. Inhibitors were serially diluted in DMSO and a volume of 0.2 μL was transferred to the wells of a 384-well plate. […] Appropriate controls (enzyme blank and enzyme with no inhibitor) were included on the plate. […] The ATP Km values were pre-determined in a separate series of experiments. […] The plate was allowed to equilibrate for ˜10 minutes at ambient temperature before scanning on a PheraStar plate reader (BMG Labtech) instrument.
(§2) Either GraphPad prism or XLfit was used to analyze the data. The IC50 values were derived by fitting the data to a four parameter logistic equation producing a sigmoidal dose-response curve with a variable Hill coefficient. Prism equation: Y=Bottom+(Top−Bottom)/(1+10^((LogIC50−X)*Hill slope)); XLfit equation: Y=(A+((B−A)/(1+((X/C)^D)))) where X is the logarithm of inhibitor concentration and Y is the response.

[2] = target: wild-type un-phosphorylated FGFR1 (Homo sapiens, UniProt P11362); test: FGFR Enzymatic Assay (FRET peptide phosphorylation), FGFR1
Method: as §1, §2

[3] = target: wild-type un-phosphorylated FGFR2 (Homo sapiens, UniProt P21802); test: FGFR Enzymatic Assay (FRET peptide phosphorylation), FGFR2
Method: as §1, §2
The data in Table 1 was measured in wild-type un-phosphorylated FGFR1, FGFR2, FGFR3 and FGFR4 protein.

Chain of wild-type un-phosphorylated FGFR3 (P22607 23-806): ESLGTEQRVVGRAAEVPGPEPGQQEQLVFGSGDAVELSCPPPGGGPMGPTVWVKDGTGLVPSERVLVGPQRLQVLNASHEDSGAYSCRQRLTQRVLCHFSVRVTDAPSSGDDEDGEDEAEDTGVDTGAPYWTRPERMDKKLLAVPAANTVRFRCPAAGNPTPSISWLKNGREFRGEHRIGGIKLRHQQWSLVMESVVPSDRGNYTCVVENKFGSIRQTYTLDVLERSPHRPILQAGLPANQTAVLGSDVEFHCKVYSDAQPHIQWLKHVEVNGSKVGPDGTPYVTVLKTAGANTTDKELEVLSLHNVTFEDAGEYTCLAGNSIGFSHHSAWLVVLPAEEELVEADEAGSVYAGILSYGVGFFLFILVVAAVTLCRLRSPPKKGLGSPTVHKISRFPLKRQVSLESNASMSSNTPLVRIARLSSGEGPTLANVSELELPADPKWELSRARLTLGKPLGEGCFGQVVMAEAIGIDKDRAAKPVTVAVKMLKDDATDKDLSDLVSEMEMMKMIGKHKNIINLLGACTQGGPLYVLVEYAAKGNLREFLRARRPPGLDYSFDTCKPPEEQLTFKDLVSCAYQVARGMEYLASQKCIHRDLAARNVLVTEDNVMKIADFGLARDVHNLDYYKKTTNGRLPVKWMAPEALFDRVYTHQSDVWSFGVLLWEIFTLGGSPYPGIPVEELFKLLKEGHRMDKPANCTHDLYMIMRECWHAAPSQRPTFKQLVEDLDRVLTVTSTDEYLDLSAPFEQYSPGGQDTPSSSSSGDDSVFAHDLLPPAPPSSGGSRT
Chain of wild-type un-phosphorylated FGFR1 (P11362 22-822): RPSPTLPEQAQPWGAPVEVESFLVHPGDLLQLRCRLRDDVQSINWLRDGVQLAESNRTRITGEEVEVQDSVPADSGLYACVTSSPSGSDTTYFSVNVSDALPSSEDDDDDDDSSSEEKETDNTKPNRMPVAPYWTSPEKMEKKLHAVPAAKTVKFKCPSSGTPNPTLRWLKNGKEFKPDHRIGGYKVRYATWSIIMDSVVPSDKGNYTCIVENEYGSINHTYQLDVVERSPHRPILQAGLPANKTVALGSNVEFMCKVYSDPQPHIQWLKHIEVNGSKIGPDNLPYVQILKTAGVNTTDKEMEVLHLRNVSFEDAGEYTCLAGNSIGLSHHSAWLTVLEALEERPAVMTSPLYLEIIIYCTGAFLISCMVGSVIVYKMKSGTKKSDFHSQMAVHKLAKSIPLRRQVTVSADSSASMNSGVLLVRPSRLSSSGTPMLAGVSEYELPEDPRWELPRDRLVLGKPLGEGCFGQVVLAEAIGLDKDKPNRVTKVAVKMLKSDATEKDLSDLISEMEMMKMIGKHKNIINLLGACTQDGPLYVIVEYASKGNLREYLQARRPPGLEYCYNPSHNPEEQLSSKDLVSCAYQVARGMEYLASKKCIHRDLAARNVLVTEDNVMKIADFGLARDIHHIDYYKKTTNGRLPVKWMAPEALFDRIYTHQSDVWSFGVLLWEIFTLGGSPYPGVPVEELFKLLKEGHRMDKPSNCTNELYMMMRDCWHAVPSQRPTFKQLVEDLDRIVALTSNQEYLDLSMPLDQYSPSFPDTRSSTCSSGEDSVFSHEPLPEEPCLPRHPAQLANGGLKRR
Chain of wild-type un-phosphorylated FGFR2 (P21802 22-821): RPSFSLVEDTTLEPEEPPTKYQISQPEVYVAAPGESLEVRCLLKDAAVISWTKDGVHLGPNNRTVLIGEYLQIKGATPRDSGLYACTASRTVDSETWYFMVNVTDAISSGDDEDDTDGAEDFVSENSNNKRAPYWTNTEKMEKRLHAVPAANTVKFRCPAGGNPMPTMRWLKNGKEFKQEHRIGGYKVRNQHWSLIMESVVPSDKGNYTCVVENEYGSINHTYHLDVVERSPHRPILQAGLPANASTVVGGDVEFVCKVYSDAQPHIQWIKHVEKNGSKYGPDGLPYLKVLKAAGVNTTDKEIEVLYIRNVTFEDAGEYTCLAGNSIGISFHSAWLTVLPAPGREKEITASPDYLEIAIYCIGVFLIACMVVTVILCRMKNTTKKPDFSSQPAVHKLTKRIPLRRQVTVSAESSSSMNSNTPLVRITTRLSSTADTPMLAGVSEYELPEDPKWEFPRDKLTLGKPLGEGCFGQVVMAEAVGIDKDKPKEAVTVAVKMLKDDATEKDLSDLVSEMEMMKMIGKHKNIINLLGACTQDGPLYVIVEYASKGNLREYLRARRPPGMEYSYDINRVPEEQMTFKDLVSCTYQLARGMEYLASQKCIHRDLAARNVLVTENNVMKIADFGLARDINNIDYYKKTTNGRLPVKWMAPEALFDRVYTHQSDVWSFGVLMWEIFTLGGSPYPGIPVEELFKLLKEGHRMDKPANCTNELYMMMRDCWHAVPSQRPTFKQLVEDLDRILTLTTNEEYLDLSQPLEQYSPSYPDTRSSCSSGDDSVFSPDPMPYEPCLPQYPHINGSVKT

Row | pIC50 [1] | pIC50 [2] | pIC50 [3] | SMILES
1 | 7.00 to 8.00 | 7.00 to 8.00 | 7.00 to 8.00 | CC(C)(O)Cn1cc(-c2cc3ncc(-c4cccc(-c5ccc(F)cc5F)c4)n3nc2O[C@H]2CCOC2)cn1 [Example 48, (S)-1-(4-(3-(2′,4′-Difluoro-[1,1′-biphenyl]-3-yl)-6-((tetrahydrofuran-3-yl)oxy)imidazo[1,2-b]pyridazin-7-yl)-1H-pyrazol-1-yl)-2-methylpropan-2-ol]
2 | 7.00 to 8.00 | 6.40 to 7.00 | 7.00 to 8.00 | CNC(=O)c1cncc(-c2cnc3cc(-c4ccc(NC(=O)OC)cc4)c(O[C@H]4CCOC4)nn23)c1 [Example 67, Methyl (S)-(4-(3-(5-(Methylcarbamoyl)pyridin-3-yl)-6-((tetrahydrofuran-3-yl)oxy)imidazo[1,2-b]pyridazin-7-yl)phenyl)carbamate]
3 | > 8.00 | 7.00 to 8.00 | 7.00 to 8.00 | CNC(=O)c1cncc(-c2cnc3cc(-c4ccc(N5CCN(C)CC5)cc4)c(O[C@H]4CCOC4)nn23)c1 [Example 68, (S)—N-Methyl-5-(7-(4-(4-methylpiperazin-1-yl)phenyl)-6-((tetrahydrofuran-3-yl)oxy)imidazo[1,2-b]pyridazin-3-yl)nicotinamide]
4 | > 8.00 | 7.00 to 8.00 | > 8.00 | CNC(=O)c1cc(F)c(F)c(-c2cnc3cc(-c4cnn(C5CCS(=O)(=O)C5)c4)c(O[C@H]4CCOC4)nn23)c1 (stereo partly drawn) [Example 69, 3-(7-(1-(1,1-Dioxidotetrahydrothiophen-3-yl)-1H-pyrazol-4-yl)-6-(((S)-tetrahydrofuran-3-yl)oxy)imidazo[1,2-b]pyridazin-3-yl)-4,5-difluoro-N-methylbenzamide]
5 | > 8.00 | 6.40 to 7.00 | > 8.00 | CNC(=O)c1cc(F)c(F)c(-c2cnc3cc(-c4cnn(-c5ccccn5)c4)c(O[C@H]4CCOC4)nn23)c1 [Example 70, (S)-3,4-Difluoro-N-methyl-5-(7-(1-(pyridin-2-yl)-1H-pyrazol-4-yl)-6-((tetrahydrofuran-3-yl)oxy)imidazo[1,2-b]pyridazin-3-yl)benzamide]
6 | > 8.00 | > 8.00 | > 8.00 | CNC(=O)c1cc(F)c(F)c(-c2cnc3cc(-c4cnn(C5CCN(C)CC5)c4)c(O[C@H]4CCOC4)nn23)c1 [Example 71, (S)-3,4-Difluoro-N-methyl-5-(7-(1-(1-methylpiperidin-4-yl)-1H-pyrazol-4-yl)-6-((tetrahydrofuran-3-yl)oxy)imidazo[1,2-b]pyridazin-3-yl)benzamide]
7 | > 8.00 | 6.40 to 7.00 | 7.00 to 8.00 | CNC(=O)c1cc(F)c(F)c(-c2cnc3cc(-c4ccncc4)c(O[C@H]4CCOC4)nn23)c1 [Example 72, (S)-3,4-Difluoro-N-methyl-5-(7-(pyridin-4-yl)-6-((tetrahydrofuran-3-yl)oxy)imidazo[1,2-b]pyridazin-3-yl)benzamide]

The remaining lines, values behind:

Row | SMILES | pIC50 [1] | pIC50 [2] | pIC50 [3]
8 | CNC(=O)c1cc(-c2cnc3cc(-c4cnn(C(C)(C)C#N)c4)c(O[C@H]4CCOC4)nn23)c(F)c(C(F)F)c1 [Example 26, (S)-3-(7-(1-(2-Cyanopropan-2-yl)-1H-pyrazol-4-yl)-6-((tetrahydrofuran-3-yl)oxy)imidazo[1,2-b]pyridazin-3-yl)-5-(difluoromethyl)-4-fluoro-N-methylbenzamide] | > 8.00 | 7.00 to 8.00 | > 8.00
9 | CNC(=O)c1cc(-c2cnc3cc(-c4cnn5ccccc45)c(O[C@H]4CCOC4)nn23)c(F)c(C(F)F)c1 [Example 27, (S)-3-(Difluoromethyl)-4-fluoro-N-methyl-5-(7-(pyrazolo[1,5-a]pyridin-3-yl)-6-((tetrahydrofuran-3-yl)oxy)imidazo[1,2-b]pyridazin-3-yl)benzamide] | 7.00 to 8.00 | 7.00 to 8.00 | 7.00 to 8.00
10 | CNC(=O)c1cc(-c2cnc3cc(-c4cnn5c4CNCC5)c(O[C@H]4CCOC4)nn23)c(F)c(C(F)F)c1 [Example 28, (S)-3-(Difluoromethyl)-4-fluoro-N-methyl-5-(6-((tetrahydrofuran-3-yl)oxy)-7-(4,5,6,7-tetrahydropyrazolo[1,5-a]pyrazin-3-yl)imidazo[1,2-b]pyridazin-3-yl)benzamide] | 7.00 to 8.00 | ≤ 6.40 | 7.00 to 8.00
11 | CNC(=O)c1cc(-c2cnc3cc(-c4cnn(Cc5cccnc5)c4)c(O[C@H]4CCOC4)nn23)c(F)c(C(F)F)c1 [Example 29, (S)-3-(Difluoromethyl)-4-fluoro-N-methyl-5-(7-(1-(pyridin-3-ylmethyl)-1H-pyrazol-4-yl)-6-((tetrahydrofuran-3-yl)oxy)imidazo[1,2-b]pyridazin-3-yl)benzamide] | > 8.00 | 7.00 to 8.00 | > 8.00
12 | CNC(=O)c1cc(-c2cnc3cc(-c4ccc(C)c(C#N)c4)c(O[C@H]4CCOC4)nn23)c(F)c(C(F)F)c1 [Example 31, (S)-3-(7-(3-Cyano-4-methylphenyl)-6-((tetrahydrofuran-3-yl)oxy)imidazo[1,2-b]pyridazin-3-yl)-5-(difluoromethyl)-4-fluoro-N-methylbenzamide] | 7.00 to 8.00 | ≤ 6.40 | 7.00 to 8.00
13 | CNC(=O)c1cc(-c2cnc3cc(-c4ccc(N5CCCC5)nc4)c(O[C@H]4CCOC4)nn23)c(F)c(C(F)F)c1 [Example 32, (S)-3-(Difluoromethyl)-4-fluoro-N-methyl-5-(7-(6-(pyrrolidin-1-yl)pyridin-3-yl)-6-((tetrahydrofuran-3-yl)oxy)imidazo[1,2-b]pyridazin-3-yl)benzamide] | > 8.00 | 6.40 to 7.00 | > 8.00
14 | CNC(=O)c1cc(-c2cnc3cc(-c4ccc(N5CCCC5=O)nc4)c(O[C@H]4CCOC4)nn23)c(F)c(C(F)F)c1 [Example 33, (S)-3-(Difluoromethyl)-4-fluoro-N-methyl-5-(7-(6-(2-oxopyrrolidin-1-yl)pyridin-3-yl)-6-((tetrahydrofuran-3-yl)oxy)imidazo[1,2-b]pyridazin-3-yl)benzamide] | > 8.00 | 6.40 to 7.00 | 7.00 to 8.00
15 | CNC(=O)c1cc(-c2cnc3cc(-c4cnn([C@H]5CC[C@H](O)CC5)c4)c(O[C@H]4CCOC4)nn23)c(F)c(C(F)F)c1 [Example 34, 3-(Difluoromethyl)-4-fluoro-5-(7-(1-((1r,4S)-4-hydroxycyclohexyl)-1H-pyrazol-4-yl)-6-(((S)-tetrahydrofuran-3-yl)oxy)imidazo[1,2-b]pyridazin-3-yl)-N-methylbenzamide] | > 8.00 | > 8.00 | > 8.00
16 | CNC(=O)c1cc(-c2cnc3cc(-c4ccc(C(C)(C)O)nc4)c(O[C@H]4CCOC4)nn23)c(F)c(C(F)F)c1 [Example 35, (S)-3-(Difluoromethyl)-4-fluoro-5-(7-(6-(2-hydroxypropan-2-yl)pyridin-3-yl)-6-((tetrahydrofuran-3-yl)oxy)imidazo[1,2-b]pyridazin-3-yl)-N-methylbenzamide] | > 8.00 | 6.40 to 7.00 | 7.00 to 8.00
17 | CNC(=O)c1cc(-c2cnc3cc(-c4ccc(C(=O)NC)c(F)c4)c(O[C@H]4CCOC4)nn23)c(F)c(C(F)F)c1 [Example 36, (S)-3-(Difluoromethyl)-4-fluoro-5-(7-(3-fluoro-4-(methylcarbamoyl)phenyl)-6-((tetrahydrofuran-3-yl)oxy)imidazo[1,2-b]pyridazin-3-yl)-N-methylbenzamide] | 7.00 to 8.00 | 6.40 to 7.00 | 7.00 to 8.00
18 | CNC(=O)c1cc(CO)c(F)c(-c2cnc3cc(-c4cnn(C)c4)c(O[C@H]4CCOC4)nn23)c1 [Example 40, (S)-4-Fluoro-3-(hydroxymethyl)-N-methyl-5-(7-(1-methyl-1H-pyrazol-4-yl)-6-((tetrahydrofuran-3-yl)oxy)imidazo[1,2-b]pyridazin-3-yl)benzamide] | > 8.00 | 7.00 to 8.00 | > 8.00
19 | CNC(=O)c1cc(CC#N)c(F)c(-c2cnc3cc(-c4cnn(C)c4)c(O[C@H]4CCOC4)nn23)c1 [Example 44, (S)-3-(Cyanomethyl)-4-fluoro-N-methyl-5-(7-(1-methyl-1H-pyrazol-4-yl)-6-((tetrahydrofuran-3-yl)oxy)imidazo[1,2-b]pyridazin-3-yl)benzamide] | > 8.00 | 6.40 to 7.00 | 7.00 to 8.00
20 | CNC(=O)c1cc(CN2CCCC2)c(F)c(-c2cnc3cc(-c4cnn(C)c4)c(O[C@H]4CCOC4)nn23)c1 [Example 45, (S)-4-Fluoro-N-methyl-3-(7-(1-methyl-1H-pyrazol-4-yl)-6-((tetrahydrofuran-3-yl)oxy)imidazo[1,2-b]pyridazin-3-yl)-5-(pyrrolidin-1-ylmethyl)benzamide] | 7.00 to 8.00 | 7.00 to 8.00 | 7.00 to 8.00
21 | CC(C)n1cc(-c2cc3ncc(-c4cccc(F)c4F)n3nc2O[C@H]2CCOC2)cn1 [Example 46, (S)-3-(2,3-Difluorophenyl)-7-(1-isopropyl-1H-pyrazol-4-yl)-6-((tetrahydrofuran-3-yl)oxy)imidazo[1,2-b]pyridazine] | 7.00 to 8.00 | 6.40 to 7.00 | 7.00 to 8.00
22 | CCOc1cccc(-c2cnc3cc(-c4cnn(C)c4)c(O[C@H]4CCOC4)nn23)c1 [Example 47, (S)-3-(3-Ethoxyphenyl)-7-(1-methyl-1H-pyrazol-4-yl)-6-((tetrahydrofuran-3-yl)oxy)imidazo[1,2-b]pyridazine] | 7.00 to 8.00 | 7.00 to 8.00 | 7.00 to 8.00
